What was measured:
HIF1α [1] = assay: Heat shock-induced HIF1α level in HCT116 (Western blot); assay type: cell-based; conditions: HCT116, normoxia
Excerpt: (§1) HCT116, SW480, HT29, DLD1, and RKO cells were obtained from American Type Culture Collection. HCT116 and HT29 cells were maintained in McCoy's 5A medium (Hyclone) with 10% fetal bovine serum (FBS, Hyclone) and 1% penicillin/streptomycin (P/S). SW480, DLD1, and RCC4 cells were maintained in Dulbecco's modified Eagle medium (Hyclone) with 10% FBS and 1% P/S. RKO cells were maintained in RPMI 1640 medium (Hyclone) with 10% FBS and 1% P/S. Cells were regularly tested and authenticated. All cell lines were maintained at 37° C. in 5% CO2. As for hypoxia treatment, cells were kept in a hypoxia chamber (In vivo^2, Ruskinn) which maintains 0.5% O2.
(§2) Treated cells were lysed in RIPA buffer (Sigma). Protein concentrations were determined using a BCA Protein Assay Kit (Life Technologies). Equal amounts of total protein were boiled with LDS sample buffer (Thermo Fisher Scientific) and reducing agent (Invitrogen). Samples were analyzed with SDS-PAGE. Proteins were transferred to an Immobilon-P PVDF membrane (EMD Millipore). First and secondary antibodies were added in order. Signals were detected after addition of the ECL western blotting substrate (Thermo Fisher Scientific).

HIF1α [2] = assay: HIF1α level in RCC4 cells (Western blot); assay type: cell-based; conditions: 6 hours under normoxia, independently of VHL presence
Excerpt: as §1, §2

## O=C1NC(=NCc2cccs2)S/C1=C\c1ccc2ncccc2c1 [Ro-3306]
HIF1α [1]
  reversal of heat shock upregulation of HIF1α: reversed
HIF1α [2]
  level of HIF1α: decreases

From patent US10729692B2, “Dual inhibition of CDK and HSP90 destabilize HIF1alpha and synergistically induces cancer cell death” (Institute For Cancer Research, priority 2017, dated 2020)
